# In patent US20250041278A1, “TLR8 AGONIST FOR MODULATING IMMUNE RESPONSE” (The Children's Medical Center Corporation, priority 2021, published 2025):
# Columns and labels:
# Format in all cases: cell-based
# hTLR7 = biological target: T1, hTLR7 (Homo sapiens, UniProt Q9NYK1); assay: HEK hTLR7 NF-κB SEAP reporter assay; settings: even at higher concentrations
# T1 construct: expressed in transfected cells; host or cells: HEK reporter cells
# T1 sequence (Q9NYK1 27-1049): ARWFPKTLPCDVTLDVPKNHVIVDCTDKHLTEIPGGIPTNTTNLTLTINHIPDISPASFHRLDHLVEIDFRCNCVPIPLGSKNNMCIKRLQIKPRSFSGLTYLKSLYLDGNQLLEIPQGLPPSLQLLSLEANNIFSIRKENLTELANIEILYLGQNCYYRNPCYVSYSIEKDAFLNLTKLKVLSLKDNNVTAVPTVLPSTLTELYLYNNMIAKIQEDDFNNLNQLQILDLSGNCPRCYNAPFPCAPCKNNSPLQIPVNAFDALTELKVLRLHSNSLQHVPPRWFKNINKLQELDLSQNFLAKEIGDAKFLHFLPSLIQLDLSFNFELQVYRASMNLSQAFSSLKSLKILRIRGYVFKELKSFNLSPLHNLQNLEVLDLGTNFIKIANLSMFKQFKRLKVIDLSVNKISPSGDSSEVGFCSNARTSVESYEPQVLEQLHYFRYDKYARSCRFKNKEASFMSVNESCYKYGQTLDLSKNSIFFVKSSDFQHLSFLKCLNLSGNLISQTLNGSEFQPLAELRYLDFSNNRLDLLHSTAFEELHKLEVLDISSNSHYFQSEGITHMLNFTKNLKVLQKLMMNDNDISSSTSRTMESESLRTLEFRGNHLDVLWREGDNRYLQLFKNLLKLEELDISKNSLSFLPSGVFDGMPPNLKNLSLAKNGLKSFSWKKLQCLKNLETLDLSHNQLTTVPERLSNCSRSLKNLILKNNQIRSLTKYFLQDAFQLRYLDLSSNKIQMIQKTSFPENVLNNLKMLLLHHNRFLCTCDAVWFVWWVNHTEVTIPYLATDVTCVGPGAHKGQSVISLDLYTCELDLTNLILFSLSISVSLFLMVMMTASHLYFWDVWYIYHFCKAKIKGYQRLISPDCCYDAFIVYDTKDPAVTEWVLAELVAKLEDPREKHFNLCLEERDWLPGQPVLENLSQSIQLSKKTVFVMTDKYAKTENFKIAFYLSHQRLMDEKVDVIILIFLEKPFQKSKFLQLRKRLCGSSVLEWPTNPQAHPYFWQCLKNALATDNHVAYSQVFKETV
# Experimental: (§1) FIGS. 3A-3E. PVP-179 is a TLR8 agonist. FIG. 3A: PVP-179 was sent to InvivoGen for PRR ligand screening service. Various cells lines were utilized to screen for PVP-179-induced ([…]) activation of TLRs, NOD1/2, RIG-I/MDA-5, Dectin-1 or Mincle receptor. The heat-map depicts percentage activity compared to the positive control for each receptor. FIG. 3B: PVP-179 induced activity (% activity compared to the positive control: CL075 at 1 μg/mL) in HEK-293 cells specifically expressing hTLR8. In brief, these cells have an NF-κB/AP-1-inducible secreted embryonic alkaline phosphatase (SEAP) reporter gene which allows monitoring of signaling via TLR8. After incubation for 16-24 hours, supernatant harvested from the cells is mixed with media containing SEAP-substrate and the optical density (OD) is measured at 650 nm using a spectrophotometer. FIG. 3C: As in FIG. 3B, HEK cells specifically expressing hTLR2, hTLR7, or hTLR8, in addition to the HEK-Null cell line carrying only the reporter gene, were stimulated with the indicated concentrations of PVP-179. […] PVP-179 activity is expressed as a percentage of NF-κB induced in the cells stimulated with TNF (positive control for each cell line). […] The supernatants were harvested after 20-24 hours and SEAP production (to assess NF-κB activity) was measured using QUANTIBlue assay. […]
# hTLR2 = biological target: T2, hTLR2 (Homo sapiens, UniProt O60603); assay: HEK hTLR2 NF-κB SEAP reporter assay; settings: even at higher concentrations
# T2 construct: expressed in transfected cells; host or cells: HEK reporter cells
# Experimental: as §1
# human elderly PBMCs = assay: Screen of 310 molecules for TNF production by human elderly PBMCs; settings: elderly PBMCs of 4 donors, 10% autologous plasma
# From the text: FIGS. 1A-1D. Discovery of PVP-179 in a human PBMC high-throughput screen. FIG. 1A: A graphical overview depicting screen approach. From a high-throughput screen previously conducted, 310 molecules were identified to be activators of either THP-1 cells (monocyte cell line) or primary human adult peripheral blood mononuclear cells (PBMCs). These 310 molecules were assembled into a stimulation plate and then applied to the PBMCs of 4 elderly donors (cultured with 10% autologous plasma). […] Z scores were averaged across all four elderly donors. The Z score and chemical structure for PVP-179 are indicated. FIG. 1C: Human adult or elderly PBMCs (cultured with 10% autologous plasma) were stimulated with PVP-179 in a two-point concentration titration manner. After 18 hours of incubation, supernatant was processed for ELISA-based measurement of TNF production. N=4 donors. FIG. 1D: As in FIG. 1C, the supernatants were collected, and 14 cytokines were measured by multiplex assay. […] N=4 donors each.
# In a previous high throughput screen (HTS), a number of hit molecules were identified as potentially activating human leukocytes. […] A separate pilot screen of 9,000 of the molecules for TNF-inducing activity in adult human peripheral blood mononuclear cells (PBMCs) subsequently identified 133 molecules. […]
# T2 sequence (O60603 21-784): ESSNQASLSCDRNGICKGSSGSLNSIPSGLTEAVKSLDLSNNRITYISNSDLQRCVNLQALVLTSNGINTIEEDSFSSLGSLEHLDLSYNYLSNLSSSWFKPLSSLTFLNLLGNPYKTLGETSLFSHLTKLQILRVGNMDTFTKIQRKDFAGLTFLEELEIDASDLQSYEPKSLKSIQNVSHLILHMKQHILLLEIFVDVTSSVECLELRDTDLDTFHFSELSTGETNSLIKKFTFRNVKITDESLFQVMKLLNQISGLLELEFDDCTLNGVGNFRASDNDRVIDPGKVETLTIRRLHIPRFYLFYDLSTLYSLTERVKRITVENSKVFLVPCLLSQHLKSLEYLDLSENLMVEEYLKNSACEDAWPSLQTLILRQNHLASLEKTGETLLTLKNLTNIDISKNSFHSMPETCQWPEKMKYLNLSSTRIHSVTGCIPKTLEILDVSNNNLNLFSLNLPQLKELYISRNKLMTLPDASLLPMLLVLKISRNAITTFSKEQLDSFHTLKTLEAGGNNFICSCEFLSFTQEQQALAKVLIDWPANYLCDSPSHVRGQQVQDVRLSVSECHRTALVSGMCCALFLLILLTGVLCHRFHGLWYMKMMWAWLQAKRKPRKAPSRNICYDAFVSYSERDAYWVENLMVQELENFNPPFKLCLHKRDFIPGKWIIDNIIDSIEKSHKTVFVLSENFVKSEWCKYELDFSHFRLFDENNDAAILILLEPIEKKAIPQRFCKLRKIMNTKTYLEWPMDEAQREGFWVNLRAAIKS
smiles,measurement,setting,value
CCCCn1c(/N=C/c2nc3ccccc3n2C)nc2ccccc21 [PVP-179],NF-κB activity in HEK cells expressing hTLR7,hTLR7,no activity was detected
same,NF-κB activity in HEK cells expressing hTLR2,hTLR2,no activity was detected
same,"TNF production, screen hit call",human elderly PBMCs,robust TNF-inducing hit
